# Values of other authors as cited in publication PMC3272643 (Organic process research & development, 2012).
# Tested on: peptide-cleaving proteases
substance,measurement,value
gramicidin S,resistance to peptide-cleaving proteases,significant resistance to peptide-cleaving proteases
